According to patent EP2316926B1, “Enantioselective production of alpha-hydroxy carbonyl compounds” (priority 2009, dated 2011):
Values joined by “and” are separate entries in the source; they are usually repeats but may differ in a detail not shown here. Equal values may be shown once. Read-outs that look alike come from different tables or passages of the source. Values belong to the compound of their own block, whether it stands above or below them.

Key:
Type in all cases: biochemical
Gox0644 [1] = target: T1, Gox0644 (Gluconobacter oxydans, UniProt Q5FT75); experiment: NADPH-dependent α-ketocarbonyl reductase activity assay (rate of decrease of NADPH at 340 nm); details: for Gox0644 U/mg*: Table 3, 10 mM substrate, 40 mM K-phosphate buffer pH 7.0, 0.05 mM NAD(P)H, 30 °C, U/mg = µmol x min^-1 x mg protein^-1; for reduction by Gox0644: result in words; for Specific Activity (U/mg)*: Table 4, cofactor NADPH, U/mg = µmol/mg·min
Procedure: Reactions were induced by addition of enzyme or substrate. One unit was defined as the amount of enzyme activity catalyzing the conversion of 1 µmol of pyridine nucleotide per min at 30 °C. NMR Analysis of Biotransformation Products: Biotransformations were extracted with equal volumes of CDCl3. and ^13C NMR spectra were recorded on a Bruker Avance 300 DPX spectrometer operating at 300 MHz for ^1H NMR and at 75 MHz for ^13C NMR, respectively.
Reactions were induced by addition of enzyme or substrate. One unit of activity was defined as the amount of enzyme activity catalyzing the conversion of 1 µmol of pyridine nucleotide per min at 30 °C.
The standard reaction mixture (1 ml) for the reduction reactions of substrates contained 10 mM substrate, 40 mM potassium phosphate buffer (K-phosphate buffer) pH 7.0, 0.05 mM NAD(P)H, and the enzyme unless otherwise noted. Reactions were induced by addition of enzyme or substrate. One unit of activity was defined as the amount of enzyme activity catalyzing the conversion of 1 µmol of pyridine nucleotide per min at 30 °C. […] Table 3: Enzymatic activities with α-diketones, α-ketoaldehydes and α-ketoesters

Gox1615 = target: T2, Gox1615 (Gluconobacter oxydans, UniProt Q5FQJ0); experiment: as above; details: for Gox1615 U/mg*: Table 3, 10 mM substrate, 40 mM K-phosphate buffer pH 7.0, 0.05 mM NAD(P)H, 30 °C, U/mg = µmol x min^-1 x mg protein^-1; for Specific Activity (U/mg)*: Table 5, cofactor NADPH, U/mg = µmol/mg·min
T2 sequence (Q5FQJ0 1-332): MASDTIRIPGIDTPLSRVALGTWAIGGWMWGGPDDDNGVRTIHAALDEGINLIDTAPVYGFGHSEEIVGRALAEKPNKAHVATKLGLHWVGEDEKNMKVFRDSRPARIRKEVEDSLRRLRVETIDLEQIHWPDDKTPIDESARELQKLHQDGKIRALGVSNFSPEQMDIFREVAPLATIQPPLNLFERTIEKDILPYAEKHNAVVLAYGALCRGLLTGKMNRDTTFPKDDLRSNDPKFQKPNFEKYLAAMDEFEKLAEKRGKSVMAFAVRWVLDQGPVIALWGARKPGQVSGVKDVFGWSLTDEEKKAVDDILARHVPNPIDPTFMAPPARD
Procedure: Measurement of enzyme activity: NADPH-dependent α-ketocarbonyl reductases were assayed by a routine method used for NAD(P)-linked enzymes by recording the rate of decrease of NADPH at 340 nm (ε = 6.22 mM^-1 x cm^-1)) with substrates at 30 °C. The reaction mixture (1 ml) for reduction of α-ketocarbonyl substrates contained 10 mM substrate, 40 mM potassium phosphate buffer pH 7.0, 0.025 mM NAD(P)H and the enzyme. Reactions were induced by addition of enzyme or substrate. One unit was defined as the amount of enzyme activity catalyzing the conversion of 1 µmol of pyridine nucleotide per min at 30 °C. NMR Analysis of Biotransformation Products: Biotransformations were extracted with equal volumes of CDCl3. and ^13C NMR spectra were recorded on a Bruker Avance 300 DPX spectrometer operating at 300 MHz for ^1H NMR and at 75 MHz for ^13C NMR, respectively. Spectra were processed using Bruker TonSpin 1.3 for Windows software and calibrated to the residual solvent peak of CDCl3 (δH = 7.26 / δC = 77.0).
NADPH-dependent α-ketocarbonyl reductases were assayed by a routine method used for NAD(P)-linked enzymes by recording the rate of decrease of NADPH at 340 nm (ε = 6.22 mM^-1.cm^-1) with substrates at 30 °C. The reaction mixture (1 ml) for reduction of α-ketocarbonyl substrates contained 10 mM substrate, 40 mM potassium phosphate buffer pH 7.0, 0.025 mM NADPH, and the enzyme. Reactions were induced by addition of enzyme or substrate. One unit of activity was defined as the amount of enzyme activity catalyzing the conversion of 1 µmol of pyridine nucleotide per min at 30 °C.
Purified NAD(P)-dependent oxidoreductases were assayed at 30 °C by a routine method used for NAD(P)-linked enzymes by recording the rate of decrease of NAD(P)H at 340 nm (ε = 6.22 mM^-1˙cm^-1) with substrates capable of reduction reactions. The standard reaction mixture (1 ml) for the reduction reactions of substrates contained 10 mM substrate, 40 mM potassium phosphate buffer (K-phosphate buffer) pH 7.0, 0.05 mM NAD(P)H, and the enzyme unless otherwise noted. Reactions were induced by addition of enzyme or substrate. One unit of activity was defined as the amount of enzyme activity catalyzing the conversion of 1 µmol of pyridine nucleotide per min at 30 °C. Measurement of the protein content was performed by the method of Bradford (Bradford M.M., Anal. Biochem. 72:248-254 (1976)). Table 3: Enzymatic activities with α-diketones, α-ketoaldehydes and α-ketoesters

Gox1122 = target: T3, Gox1122 (Gluconobacter oxydans, UniProt Q5FRV6); experiment: Aldehyde dehydrogenase activity and kinetic constants
T3 sequence (Q5FRV6 1-463): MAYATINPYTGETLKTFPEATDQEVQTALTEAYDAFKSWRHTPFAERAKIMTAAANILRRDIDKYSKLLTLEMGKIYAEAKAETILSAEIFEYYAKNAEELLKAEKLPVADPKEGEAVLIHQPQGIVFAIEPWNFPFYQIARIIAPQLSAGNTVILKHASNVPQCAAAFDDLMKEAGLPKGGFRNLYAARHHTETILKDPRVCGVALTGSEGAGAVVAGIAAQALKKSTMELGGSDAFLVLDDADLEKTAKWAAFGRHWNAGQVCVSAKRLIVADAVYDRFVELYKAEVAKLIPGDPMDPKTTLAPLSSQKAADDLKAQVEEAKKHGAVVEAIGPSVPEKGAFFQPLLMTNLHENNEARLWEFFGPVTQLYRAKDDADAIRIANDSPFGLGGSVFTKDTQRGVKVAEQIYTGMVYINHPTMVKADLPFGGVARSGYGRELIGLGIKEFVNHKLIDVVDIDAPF
Procedure: The enzyme is used in a combined enzymatic reaction between the NADPH-dependent reductases (see above) that form α-hydroxy carbonyl compounds.
Determination of pH and temperature optima and enzyme kinetics: The optimum pH for enzyme activities was determined by a modified method of Salusjärvi, T. et al., Appl. Microbiol. Biotechnol. 65:306-314 (2004) using the following buffer system (50 mM final concentration each): sodium acetate pH 4.5 - 6.5, potassium phosphate pH 6.5 - 8.0, Tris-HCl pH 8.0 - 10. Temperature optima for the biocatalysts were determined under standard reaction conditions at temperatures ranging from 20 - 80 °C. The Michaelis constant (Km) for the proteins was determined from purified enzyme by Lineweaver-Burk plots. Assays were performed at optimum pH for each enzyme and at 30 °C using the best substrate and a targeted substrate. The Km for each substrate was calculated using concentrations of 0.0025 to 10 mM, and the Km NAD(P)H and NAD(P) was calculated using concentrations of 0.01 to 0.5 mM
2.9 Kinetic parameters of the keto carbonyl reductases: Kinetic constants were determined from purified enzyme by Lineweaver-Burk plots. The Km and Vmax values for the substrates were calculated using concentrations of 0.025 to 10 mM. […] 8.

Gox0644 [2] = target: T1, Gox0644; experiment: Acetaldehyde tolerance test
Source text: The products derived from the α-diketone and α-ketoaldehyde substrate reactions were generated according to the cofactor regeneration protocol. This method overcomes the dependence of the enzymes on reduced cofactor by coupling the substrate reactions of Gox0644 and Gox1615, with the cofactor NADP reduction reaction based on the acetaldehyde oxidoreductase Gox1122 using acetaldehyde. […] In both the reactions with phenylglyoxal and 2,3-pentanedione, Gox0644 activity remained similar to the control reaction consisting of a reaction without acetaldehyde (Tab. 9/10). […] In the reaction with 2,3-pentanedione there was a slight decrease of about 20% from the control, however, the activity levels were still very high at 50.2 U/mg. […] Table 9: Gox0644 acetaldehyde tolerance tests with phenylglyoxal

Structure (SMILES): CCCC(=O)C(C)=O [2,3-hexanedione]
- Gox0644 U/mg* (Gox0644 [1]): 50.1 U/mg
- Gox1615 U/mg* (Gox1615): 6.5 U/mg
- Specific Activity (U/mg)* (Gox1615): 6.5 U/mg

Structure (SMILES): CCC(=O)C(=O)CC [3,4-hexanedione]
- Gox0644 U/mg* (Gox0644 [1]): 7.3 U/mg
- Gox1615 U/mg* (Gox1615): 2.0 U/mg
- Specific Activity (U/mg)* (Gox1615): 2.0 U/mg

Structure (SMILES): CCC(=O)C(=O)O [2-oxo butyric acid]
- reduction by Gox0644 (Gox0644 [1]): not reduced

Structure (SMILES): CC(=O)O [acetic acid]
- reverse reduction reaction (Gox1122; using NADPH, pH range of 4-10): No reverse reduction reaction

Structure (SMILES): O=CC=O [glyoxal]
- Specific Activity (U/mg)* (Gox0644 [1]): 1.1 U/mg
- Specific Activity (U/mg)* (Gox1615): 5 U/mg

Structure (SMILES): CC(C)=O [acetone]
- reduction by Gox0644 (Gox0644 [1]): not reduced

Structure (SMILES): O=C(C(=O)c1ccccc1)c1ccccc1 [benzil]
- Specific Activity (U/mg)* (Gox0644 [1]): 14.0 U/mg

Structure (SMILES): CC=O [acetaldehyde]
- Gox0644 activity (Gox0644 [2]; substrate 2,3-pentanedione, 10mM acetaldehyde, control without acetaldehyde 65.7 U/mg): 67.9 U/mg
- Gox0644 activity (Gox0644 [2]; substrate 2,3-pentanedione, 30mM acetaldehyde, control without acetaldehyde 65.7 U/mg): 59.5 U/mg
- Gox0644 activity (Gox0644 [2]; substrate 2,3-pentanedione, 50mM acetaldehyde, control without acetaldehyde 65.7 U/mg): 50.2 U/mg and 50.1 U/mg
- Gox0644 activity (Gox0644 [2]; substrate phenylglyoxal, 10mM acetaldehyde, control without acetaldehyde 38.5 U/mg): 29.6 U/mg
- Gox0644 activity (Gox0644 [2]; substrate phenylglyoxal, 30mM acetaldehyde, control without acetaldehyde 38.5 U/mg): 37.1 U/mg
- Gox0644 activity (Gox0644 [2]; substrate phenylglyoxal, 50mM acetaldehyde, control without acetaldehyde 38.5 U/mg): 39.3 U/mg
- Gox0644 activity (Gox0644 [2]; substrate phenylglyoxal, 100mM acetaldehyde, control without acetaldehyde 38.5 U/mg): 31.2 U/mg
- inhibition at 100000 µM (Gox0644 [2]; substrate phenylglyoxal, 100 mM of acetaldehyde, versus control, read-out: decrease in activity): ≤ 20%
- Vmax (Gox1122; 40 mM KPB at optimal pH and 30 °C): 196 µmol/min x mg
- Km (Gox1122; 40 mM KPB at optimal pH and 30 °C, read-out: Km): 200 µM
- apparent Vmax value (Gox1122; fixed 0.5 mM NADP, acetaldehyde as the varied substrate): 196 U/mg protein
- Km (Gox1122; several concentrations of the aldehyde from 0.0025 to 10 mM, read-out: Km value): 255 µM

Structure (SMILES): CC(=O)C(C)=O [2,3-butanedione]
- Specific Activity (U/mg)* (Gox0644 [1]): 60.0 U/mg
- Specific Activity (U/mg)* (Gox1615): 6.0 U/mg

Structure (SMILES): O=C(O)C(=O)[C@@H](O)[C@H](O)C(=O)CO [2,5-diketogluconate]
- reduction by Gox0644 (Gox0644 [1]): reduced

Next, values leading:

- Gox0644 U/mg* (Gox0644 [1]): 92.8 U/mg
- activity (Gox0644 [1]; substrates showing the highest activities): 93 U/mg protein
- Gox1615 U/mg* (Gox1615): 1.2 U/mg
- Specific Activity (U/mg)* (Gox1615): 1.2 U/mg
Structure (SMILES): CCOC(=O)C(C)=O [ethyl pyruvate]

- Gox0644 U/mg* (Gox0644 [1]): 63.1 U/mg
- Gox1615 U/mg* (Gox1615): 4.7 U/mg
- Specific Activity (U/mg)* (Gox1615): 4.7 U/mg
Structure (SMILES): CC(=O)C(=O)OCCC(C)C [isoamyl pyruvate]

- reduction by Gox0644 (Gox0644 [1]): not reduced
Structure (SMILES): CC(=O)C(C)O (stereo not shown) [acetoin]

- Km (Gox1122; cofactor NADP, read-out: apparent Km value): 73 µM
Structure (SMILES): NC(=O)c1ccc[n+]([C@@H]2O[C@H](COP(=O)(O)OP(=O)(O)OC[C@H]3O[C@@H](n4cnc5c(N)ncnc54)[C@H](OP(=O)(O)O)[C@@H]3O)[C@@H](O)[C@H]2O)c1 [NADP]

- reduction by Gox0644 (Gox0644 [1]): not reduced
Structure (SMILES): CC(=O)CC(C)=O [acetylacetone]
